Assay results: patent publication US8530172B2, “Methods and materials for assessing enzyme-nucleic acid complexes” (Mayo Foundation for Medical Education and Research, priority 2010, dated 2013)

How the values were obtained:
[1] = biological target: T1, topo I-DNA covalent complexes (Homo sapiens, UniProt P11387); assay: In vivo complexing of enzyme (ICE) assay with immunoblotting, A549 cells; format: cell-based; details: 10 μM drug, 60 minutes
T1 construct: separate topo I-DNA covalent complexes from free topo I in A549 cell lysates; endogenous in cells; host or cells: A549
T1 sequence (P11387 1-765): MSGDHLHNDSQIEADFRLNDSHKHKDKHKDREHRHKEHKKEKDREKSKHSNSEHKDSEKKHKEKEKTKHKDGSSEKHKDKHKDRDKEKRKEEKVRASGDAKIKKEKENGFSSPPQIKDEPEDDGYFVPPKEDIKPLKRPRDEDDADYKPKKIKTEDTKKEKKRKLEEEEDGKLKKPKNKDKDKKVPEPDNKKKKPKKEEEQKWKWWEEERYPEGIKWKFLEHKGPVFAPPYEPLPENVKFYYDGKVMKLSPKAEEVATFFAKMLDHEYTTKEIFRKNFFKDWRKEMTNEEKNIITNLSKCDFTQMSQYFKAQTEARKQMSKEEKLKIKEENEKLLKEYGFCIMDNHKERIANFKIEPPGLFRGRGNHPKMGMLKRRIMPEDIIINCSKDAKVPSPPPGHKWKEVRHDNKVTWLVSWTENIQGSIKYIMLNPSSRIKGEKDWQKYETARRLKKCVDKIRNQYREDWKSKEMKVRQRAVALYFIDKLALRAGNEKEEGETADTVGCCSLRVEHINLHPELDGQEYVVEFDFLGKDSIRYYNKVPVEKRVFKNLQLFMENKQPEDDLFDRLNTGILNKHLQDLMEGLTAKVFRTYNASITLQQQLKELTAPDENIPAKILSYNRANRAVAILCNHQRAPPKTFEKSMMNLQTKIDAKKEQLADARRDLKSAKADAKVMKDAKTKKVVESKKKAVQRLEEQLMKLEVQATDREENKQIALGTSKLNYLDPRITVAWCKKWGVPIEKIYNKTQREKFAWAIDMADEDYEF
Experimental: ICE assays were performed as described elsewhere (Subramanian et al., ICE Bioassay; DNA Topoisomerase Protocols: Volume II: Enzymology and Drugs, 2001, pp 137-147; and Gálvez-Peralta et al., Bioorganic & Medicinal Chemistry Letters, 19:4459-4462 (2009)). Briefly, A549 cells grown to 40-60% confluence in 100 mm tissue culture dishes were treated for 60 minutes with 0.1% (v/v) DMSO, 10 μM TPT, or 10 μM etoposide in serum-free RPMI containing 10 mM HEPES, pH 7.4 (medium B). At the end of the incubation, the medium was aspirated, and the cells were rapidly lysed in 1 mL lysis buffer consisting of 1% (w/v) sarkosyl, 10 mM Tris-HCl (pH 8.0 at 20-22° C.) and 1 mM EDTA. Lysate was layered on a cesium chloride gradient and ultracentrifuged at 125,000 g for 21 hours at 20° C. After centrifuge tubes were perforated at the bottom with a 23-gauge needle, 0.5 mL fractions were collected, assayed for the presence of DNA (detectable in fractions 1-4), and slot-blotted onto nitrocellulose membranes. Membranes were then blocked in 5% (w/v) milk in […] NaCl containing 10 mM Tris-HCl (pH 7.4 at 20-22° C.) for 2 hours and incubated in either C-21 anti-topo I IgM antibody (obtained from Y.-C. Cheng; Yale University; New Haven, Conn.) or the α-TopoI cc antibody (diluted to 1 μg/mL in blocking buffer). Western blotting was performed as described elsewhere (Kaufmann, Anal. Biochem., 296:283-286 (2001)).

[2] = biological target: T1, topo I-DNA covalent complexes; assay: Immunofluorescence (confocal microscopy) in A549 cells; format: cell-based
Experimental: Immunofluorescence studies in A549 cells were performed as described elsewhere (Segovis et al., J. Immunol., 182:6933-6942 (2009)) with several modifications. After cells grown on nitric acid-etched coverslips were treated for 1 hour with TPT in medium B, coverslips were fixed in 2% (w/v) paraformaldehyde in calcium- and magnesium-free Dulbecco's phosphate buffered saline (PBS) for 10 minutes at room temperature, washed with PBS, and permeabilized with 0.25% (v/v) Triton X-100 in PBS for 5 minutes. To denature DNA-protein crosslinks, the coverslips were incubated in 1% SDS for 5 minutes (Brown et al., Histochem. Cell Biol., 105:261-267 (1996)), washed three times with PBS, and incubated in a blocking buffer consisting of PBS, 1% (v/v) glycerol, 0.1% glycerol from cold water fish, 5% (v/v) normal goat serum, 0.1% (w/v) BSA, and 0.4% (w/v) sodium azide. Coverslips were incubated overnight in primary antibody, followed by staining with Alexa Fluor 488-, 568-, or 647-conjugated secondary antibody (Invitrogen) diluted at a ratio of 1:1000. α-TopoI cc antibody was used at 1.2 μg/mL, and α-Topo I human IgG (Topogen; Port Orange, Fla.) was used at 1:1000. […] Quantitation and image processing were performed using the Zeiss Zen software package and Adobe Photoshop CS3.

[3] = biological target: T1, topo I-DNA covalent complexes; assay: Band depletion assay, A549 cells (SDS-PAGE immunoblot and slot blot); format: cell-based; details: increasing TPT concentrations up to 100 μM, 60 minutes
Experimental: Band depletion assays were performed as described elsewhere (Kaufmann and […], Methods Mol. Biol., 94:253-268 (1999)). A549 cells grown in 100 mm culture dishes to 40-60% confluence were treated with increasing concentrations of TPT in medium B for 60 minutes. After treatment, cells were immediately solubilized in 6 M guanidine hydrochloride containing 250 mM Tris-HCl (pH 8.5 at 20° C.), 10 mM EDTA, 1% (v/v) 2-mercaptoethanol, and 1 mM freshly added phenylmethylsulfonyl fluoride. After preparation, for electrophoresis as described elsewhere (Kaufmann et al., Blood, 89:2098-2104 (1997), aliquots containing […] of protein (determined by the bicinchoninic acid method (Smith et al., Anal. Biochem., 150:76-85 (1985)) were either slot blotted for immunoblotting with α-TopoI cc antibody or separated on SDS-polyacrylamide gels, eletrophoretically transferred to nitrocellulose, and probed with C-21 anti-Topo I or, as a loading control anti-Hsp90 mouse (obtained from D. O. Toft; Mayo Clinic; Rochester, Minn.).

[4] = biological target: T2, topo I-DNA covalent complexes (Mus musculus, UniProt Q04750); assay: Flow cytometry, wild-type P388 cells; format: cell-based; details: 2 μM TPT
T2 construct: endogenous in cells; host or cells: P388 (wild type)
T2 sequence (Q04750 1-767): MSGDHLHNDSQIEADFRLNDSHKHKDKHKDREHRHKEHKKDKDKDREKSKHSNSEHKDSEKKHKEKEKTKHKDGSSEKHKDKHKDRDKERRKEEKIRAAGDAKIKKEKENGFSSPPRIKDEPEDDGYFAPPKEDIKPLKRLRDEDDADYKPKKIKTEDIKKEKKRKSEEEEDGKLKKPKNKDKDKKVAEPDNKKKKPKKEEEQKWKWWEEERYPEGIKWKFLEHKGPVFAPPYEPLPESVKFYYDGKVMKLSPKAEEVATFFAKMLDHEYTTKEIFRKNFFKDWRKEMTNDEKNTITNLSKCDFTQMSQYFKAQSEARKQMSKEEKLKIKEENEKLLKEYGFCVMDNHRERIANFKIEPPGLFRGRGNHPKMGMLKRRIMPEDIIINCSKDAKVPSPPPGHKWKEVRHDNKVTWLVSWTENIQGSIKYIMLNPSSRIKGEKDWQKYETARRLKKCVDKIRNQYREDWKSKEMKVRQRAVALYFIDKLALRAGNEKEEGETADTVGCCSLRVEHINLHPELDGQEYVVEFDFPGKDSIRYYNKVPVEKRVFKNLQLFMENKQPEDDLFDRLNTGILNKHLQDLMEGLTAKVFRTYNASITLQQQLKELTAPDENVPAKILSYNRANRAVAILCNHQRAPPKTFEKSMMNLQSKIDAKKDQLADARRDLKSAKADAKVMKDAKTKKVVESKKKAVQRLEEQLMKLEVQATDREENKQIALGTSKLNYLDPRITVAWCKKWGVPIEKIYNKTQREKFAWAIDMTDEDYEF
Experimental: (§1) A549 and K562 cells were stained using a modified protocol of a protocol described elsewhere (Muslimovic et al., Nat. Protoc., 3:1187-1193 (2008)). After 10^6 cells were treated for 1 hour with TPT in medium B, samples were centrifuged at 300 g for 5 minutes. Cells were then partially lysed for 1 minute in 100 μL extraction buffer, which consisted of 25 mM Tris-HCl (pH 7.5 at 20-22° C.), 1% (w/v) Triton X-100, 1 mM EDTA, 0.01% (w/v) BSA, and 0.2% (w/v) paraformaldehyde then fixed for 10 minutes at 20-22° C. by addition of 1 mL 2% (w/v) paraformaldehyde in PBS. Nuclei were pelleted and incubated for 60 minutes in 100 μL blocking buffer with primary antibody (1 μg/mL for A549 and P388 cells; and 5 μg/mL for K562 cells). Nuclei were washed by addition of 2 mL PBS, pelleted, and incubated for 30 minutes in 100 μL blocking buffer with 1 μg/mL Alexa Fluor 647-conjugated goat anti-mouse IgG (Invitrogen). Nuclei were washed by addition of 2 mL PBS, pelleted, and immediately analyzed on a FACSCanto II flow cytometer (BD Biosciences; San Jose, Calif.) on the APC channel (excitation: 633 nm; emission: 660/20 nm).

[5] = test system: topo I-DNA covalent complexes; assay: Flow cytometry, P388/CPT cells (lack detectable topo I); format: cell-based, mouse; details: 2 μM TPT
Experimental: as §1

SMILES | topo I-DNA covalent complexes in DNA fractions after drug exposure (α-TopoI cc blot) [1] | α-TopoI cc staining intensity (average number of foci per cell or maximal mean fluorescence) ([2]; TPT 1 hour) | non-nucleolar staining of topo I-DNA complexes (double staining) ([2]; TPT versus untreated) | topo I-DNA covalent complex signal (slot blot probed with α-TopoI cc) [3] | total topo I signal at 100 kDa (SDS-PAGE, immunoblot) [3] | shift in α-TopoI cc staining intensity [4] | shift in α-TopoI cc staining intensity [5]
CC[C@@]1(O)C(=O)OCc2c1cc1n(c2=O)Cc2cc3c(CN(C)C)c(O)ccc3nc2-1 [TPT, Topotecan] | detected topo I that co-migrates with DNA | dose-dependent increase | dramatic increase in non-nucleolar staining of topo I-DNA complexes | corresponding increase in signal for topo I-DNA covalent complexes | graduated decrease in the topo I signal at 100 kDa | rightward shift was detectable | this shift was not observed
COc1cc([C@@H]2c3cc4c(cc3[C@@H](O[C@@H]3O[C@@H]5CO[C@@H](C)O[C@H]5[C@H](O)[C@H]3O)[C@H]3COC(=O)[C@H]23)OCO4)cc(OC)c1O [etoposide] | failed to detect |  |  |  |  |  | 
